Reference: PMC5357639 (Frontiers in Chemistry, 2017)
Where “and” joins values, the source holds several entries; their conditions need not be identical. Equal values may be shown once. Entries after “also recorded” stand apart in the source; their conditions may differ. Read-outs that look alike come from different tables or passages of the source. Where a SMILES comes first, the peptide text is derived from it. The star is where a group is joined. Orn(α-tetramethylguanidino) = CN(C)C(=N[C@@H](CCCN)C(=O)*)N(C)C

Tests used:
[1] = system: E. coli ATCC 25922; conditions: E. coli ATCC 25922; ref Czihal et al., 2012; Berthold et al., 2013; cited from earlier work
Excerpt: (§1) Antimicrobial peptides (AMPs) are considered as promising alternatives to common antibiotics that threateningly lose their therapeutic potentials against multidrug-resistant pathogens (Fox, [2013]; Wang et al., [2015]). In contrast to approved therapeutic peptide hormones, antimicrobial peptides have to be administered at much higher doses, which may amplify general drawbacks of peptide therapeutics. For example, the diabetes peptide drugs exenatide and pramlintide are given at daily doses of 20 μg (Byetta®; ~0.5 μg/kg) and 120 μg (Symlin®; ~1.5 μg/kg; Heine et al., [2005]; Hay et al., [2015]) ... || Apidaecin analogs Api88 and Api137 are similarly active against Gram-negative bacteria with a tendency of higher activity of Api88 against K. pneumoniae (Czihal et al., [2012]; Berthold et al., [2013]). However, Api88 carries a C-terminal amide that is responsible for its very fast proteolytic cleavage in serum, the supernatant obtained after complete coagulation and centrifugation of blood. The in vitro serum stability assay, which is an important in vitro criterion to select therapeutic peptides for systemic applications, yielded very short half-life times of 5 min for Api88, which indicate ...

[2] = system: E. coli ATCC 25922; conditions: ref Czihal et al., 2012, cited from earlier work
Excerpt: as §1, with “[…] Api137 appeared more efficient in this septicemia model due to” for “For example,”, “better scores obtained” for “diabetes peptide drugs exenatide and pramlintide are given”, “at” for “at daily doses of 20 μg (Byetta®; ~0.5 μg/kg) and 120 μg (Symlin®; ~1.5 μg/kg; Heine et al., [2005]; Hay et al., [2015])”

[3] = in vitro; type: in vitro ADME, CD-1 mice; conditions: female, CD-1, mouse, cerebrospinal or other body fluid
Procedure: Peritoneal lavage (1.5–2 mL) were collected from three euthanized female CD-1 mice (14 weeks, 32–33 g) after injecting sterile PBS intraperitoneal (4 mL). Peptides were incubated with aliquots (95 μL) of fresh lavage (75 μg/mL, 37°C, 750 rpm). After 0, 30, and 60 min trichloroacetic acid (25 μL, 15% w/v) was added to the samples to precipitate proteins, incubated on ice (10 min), and centrifuged (5 min, 12.400 × g). Supernatants were neutralized with sodium hydroxide (1 mol/L) and analyzed by RP-HPLC using a Poroshell 120 SB-C18-column (2.1 mm internal diameter, 100 mm length, 2.7 μm particle size, 12 nm pore size, Agilent Technologies Inc., Santa Clara, CA, USA) at 60°C and an aqueous acetonitrile gradient containing trifluoroacetic acid (0.1%, v/v). Absorbance was recorded at a wavelength of 214 nm.

[4] = system: E. coli ATCC 25922; assay: Systemic septicemia infection mouse model (lethal intraperitoneal E. coli infection); type: in vivo, NMRI mice
Procedure: (§2) The acute toxicity of Api137 was studied by administering doses of 20, 40, 80, and 120 mg/kg intraperitoneally (i.p.) four times daily (0, 3, 7, and 24 h) into female NMRI mice (24–32 g, ~7 weeks old). For in vivo efficacy, female NMRI mice (high dose experiment: 24–27.1 g, 6 weeks; low dose experiment: 26.8–30.3 g, 7 weeks) were infected intraperitoneal with E. coli ATCC 25922, as described before (Czihal et al., [2012]; Knappe et al., [2012]). Briefly, each mouse was infected with 9 × 10^5 bacteria in the presence of 2.5% (w/v) mucin (0.3 mL in total). Mucin restricts acute macrophage activation in the intraperitoneal space and promotes establishment of a reproducible infection (Frimodt-Møller et al., [1999]). Mice were observed three times daily for their health status for a total of 5 days post-infection and weighed 1 day before and 1 and 5 days after infection. In accordance with the guidelines of the Animal Care and Usage Committee of the Landesdirektion Leipzig, moribund mice were euthanized.
Apidaecin Api137 (high dose experiment: 2.5 and 1.25 mg/kg body weight; low dose experiment: 0.6 and 0.3 mg/kg body weight) was administered intraperitoneal (0.3 mL) in seven mice per group three times post-infection (1, 4, and 8 h) as antibacterial therapy. Each experiment included seven mice receiving ciprofloxacin (40 mg/kg body weight) and four mice receiving only the vehicle (5% glucose in water, w/v) as positive and negative controls, respectively.

[5] = Acute toxicity, intraperitoneal administration; type: in vivo, NMRI mice
Procedure: as §2

| SMILES | MIC [1] | Survival ([2]; 2.5 and 1.25 mg/kg i.p.) | Dose rescuing all mice ([2]; same infection model) | remaining at 1 h, 75 μg/mL [3] | Survival ([4]; 0.3 mg/kg i.p. three times post-infection (1, 4, 8 h), n = 7) | Survival ([4]; 0.6 mg/kg (and higher) i.p. three times post-infection (1, 4, 8 h), n = 7, 5 days observation) | Dose rescuing all mice ([4]; i.p. three times post-infection) | ED50 ([4]; i.p. three times post-infection (1, 4, 8 h), approximate) | half-life at 75 μg/mL [3] | Adverse side effects ([5]; 120 mg/kg per injection i.p. four times (0, 3, 7, 24 h)) | Survival ([5]; 120 mg/kg per injection i.p. four times, observation period 5 days) | Adverse side effects ([5]; 20, 40 and 80 mg/kg per injection i.p. four times (0, 3, 7, 24 h), seven animals per dose group) |
| --- | --- | --- | --- | --- | --- | --- | --- | --- | --- | --- | --- | --- |
| CC[C@H](C)[C@H](NC(=O)[C@H](Cc1ccc(O)cc1)NC(=O)[C@@H](NC(=O)[C@@H]1CCCN1C(=O)[C@H](CCCNC(=N)N)NC(=O)[C@H](CC(N)=O)NC(=O)[C@H](CC(N)=O)NC(=O)[C@H](CCCN)N=C(N(C)C)N(C)C)C(C)C)C(=O)N1CCC[C@H]1C(=O)N[C@@H](CCCNC(=N)N)C(=O)N1CCC[C@H]1C(=O)N[C@@H](CCCNC(=N)N)C(=O)N1CCC[C@H]1C(=O)N1CCC[C@H]1C(=O)N[C@@H](Cc1c[nH]cn1)C(=O)N1CCC[C@H]1C(=O)N[C@@H](CCCNC(=N)N)C(=O)N[C@@H](CC(C)C)C(N)=O [Api88] ({Orn(α-tetramethylguanidino)}-NNRPVYIPRPRPPHPRL-NH2) | ~ 4 μg/mL | rescued all NMRI mice | 1.25 mg/kg | > 60% |  |  |  |  |  |  |  |  |
| CC[C@H](C)[C@H](NC(=O)[C@H](Cc1ccc(O)cc1)NC(=O)[C@@H](NC(=O)[C@@H]1CCCN1C(=O)[C@H](CCCNC(=N)N)NC(=O)[C@H](CC(N)=O)NC(=O)[C@H](CC(N)=O)NC(=O)[C@H](CCCN)N=C(N(C)C)N(C)C)C(C)C)C(=O)N1CCC[C@H]1C(=O)N[C@@H](CCCNC(=N)N)C(=O)N1CCC[C@H]1C(=O)N[C@@H](CCCNC(=N)N)C(=O)N1CCC[C@H]1C(=O)N1CCC[C@H]1C(=O)N[C@@H](Cc1c[nH]cn1)C(=O)N1CCC[C@H]1C(=O)N[C@@H](CCCNC(=N)N)C(=O)N[C@@H](CC(C)C)C(=O)O [Api137] ({Orn(α-tetramethylguanidino)}-NNRPVYIPRPRPPHPRL-OH) | 4 μg/mL and ~ 4 μg/mL |  |  |  | four out of seven mice | rescued all NMRI mice; also recorded: rescuing all animals | 0.6 mg/kg | ~0.3 mg/kg | ~20 min | signs of discomfort in some animals and decreased mobility for up to 20 min after administration | all mice survived | none of the seven animals per dose group showed any signs of adverse side effects |
